Measurements as given in patent US11685766B2, “14-3-3 targeting peptides for cancer treatment” (Creighton University, priority 2019, dated 2023).
Peptide text beside a SMILES is read from it.

Tests used:
SCC12B.2 cells = assay type: cell-based, human; settings: 5-FU alone, concentration printed as 2004, FIG. 1D
Protocol: Human skin cancer cell lines (SCC12B.2, SCC13, SRB12) were maintained in Dulbecco's modified Eagle's medium (DMEM) (Invitrogen, Carlsbad, Calif., USA) supplemented with 1% penicillin (10 000 U/ml)-streptomycin (10 000 μg/ml) (PenStrep) (Invitrogen) and 10% fetal bovine serum (Gemini Bio-Products, Sacramento, Calif., USA) at 37° C. and 5% CO2. Normal human epidermal keratinocytes (nHEK) (Thermo Scientific, Waltham, Mass., USA) isolated from neonatal foreskin were cultured in EpiLife medium (Invitrogen) supplemented with human keratinocyte growth supplement (Invitrogen) and 1% PenStrep (Invitrogen). Cells were transfected with control pcDNA or pcDNA3.1-HA-14-3-3ε (Addgene plasmid #48797; http://n2t.net/addgene:48797; RRID:Addgene_48797) using Lipofectamine/Plus reagents (Life Technologies, Carlsbad, Calif., USA) or with siRNA targeting 14-3-3ε (Dharmacon, Lafayette, Colo., USA), 14-3-3γ (Dharmacon), 14-3-3ζ, (Dharmacon), Survivin (Cell Signaling, Danvers, Mass., USA), Akt (Dharmacon) or control siRNA (Santa Cruz Biotechnology, Dallas, Tex., USA) using siQuest transfection reagents (Mirus Bio, Madison, Wis., USA) or treated with Akt inhibitor GSK690693 (Tocris Bioscience, Bristol, United Kingdom) or cell cycle inhibitor 5-Fluorouracil (5-FU) (Thermo Fisher) resuspended in DMSO.
To determine the half maximal inhibitory concentration (IC50) for ES1P2 in SCC12B.2 and nHEK cells, cells were plated in a 96-well plate at a density of 6×10^3 cells/well. Twenty-four hours after plating, cells were treated with increasing concentrations of ES1P2 (0-75 μM) in Opti MEM medium supplemented with reduced serum (Invitrogen) for 4 consecutive days. ES1P2 peptide was resuspended fresh, daily in 25 mM Tris buffer (pH 7.5). Neutral Red Cell Viability assays were performed, where absorbance was measured using a Cytation 5 multi-mode plate reader (BioTek). The experiment was repeated three separate times with 4 replicate wells per experiment to obtain an average IC50 value.
Carcinoma human cell lines (SCC12B.2 and SCC13) were maintained in Dulbecco's modified Eagle's medium (DMEM) (Invitrogen, Carlsbad, Calif., USA) supplemented with 1% penicillin (10 000 U/ml)-streptomycin (10 000 μg/ml) (PenStrep) (Invitrogen) and 10% fetal bovine serum (Gemini Bio-Products, Sacramento, Calif., USA) at 37° C. and 5% CO2. Primary normal human epidermal keratinocytes (nHEK) (Thermo Fisher Scientific, Waltham, Mass., USA) isolated from neonatal foreskin were maintained in EpiLife medium (Invitrogen) supplemented with human keratinocyte growth supplement (HKGS) and 1% PenStrep. nHEK cells were not passaged more than twice before experiments. Cells were treated with CDC25A inhibitor NSC663284 (Tocris Bioscience, Bristol, United Kingdom) suspended in DMSO, transfected with wild type CDC25A or control plasmid using Lipofectamine/Plus transfection reagents (Life Technologies, Carlsbad, Calif., USA) or transfected with siRNA targeting 14-3-3 ε or control siRNA (Santa Cruz Biotechnology, Dallas, Tex., USA) using siQuest transfection reagents (Mirus Bio, Madison, Wis., USA).
To determine the half maximal inhibitory concentration (IC50) for pS and pT in SCC12B.2 cells, cells were plated in a 96-well plate at a density of 6×10^3 cells/well. […] Neutral Red Cell Viability assays were performed, where absorbance was measured using a Cytation 5 multi-mode plate reader (BioTek). […]

14-3-3ε protein = target: T1, 14-3-3ε protein (Homo sapiens, UniProt P62258); assay: Differential scanning fluorimetry (DSF) binding; settings: 7 μM 14-3-3ε, ΔTm vs peptide concentration, Hill fit; read-out: Kd, binding affinity to 14-3-3ε protein (DSF)
T1 sequence (P62258 1-255): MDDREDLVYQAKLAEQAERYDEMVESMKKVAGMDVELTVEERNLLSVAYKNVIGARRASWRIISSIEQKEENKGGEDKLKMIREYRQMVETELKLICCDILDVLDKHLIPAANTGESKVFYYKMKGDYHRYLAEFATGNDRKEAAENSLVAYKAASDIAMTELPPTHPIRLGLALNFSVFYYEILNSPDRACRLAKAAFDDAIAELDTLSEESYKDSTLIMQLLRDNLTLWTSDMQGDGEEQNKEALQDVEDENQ
Protocol: Differential scanning fluorimetry (DSF) experiments were performed using BioRad CFX384 Real-Time qPCR attached with C1000 Touch Thermo Cycler in the FRET channel. 7 μM subunits of 14-3-3ε protein, ten molar excess of Sypro Orange and 20 mM Tris-HCl, pH 7.4 assay buffer were used in all the melting experiments. Stock solution of peptides were prepared by dissolving 1 mg of lyophilized peptides in 20 mM Tris, pH 7.4 buffer and 0.1 μM to 200 μM dilution series were prepared. Protein melting experiments were performed both in the absence and the presence of increasing concentration of peptides. 15 μL of each samples (in triplicate) were put into each well of a 384-well white PCR plate and sealed with optical adhesive sealer (BioRad MSB-1001) and any air-bubble in the solutions were removed by spinning the plate vertically with PCR plate spinner (Labnet MPS 1000) at 1000 RPM for 3 minutes. The temperature was increased from 25° C. to 95° C. at a rate of 0.7° C. per minute. Melting temperatures of each well were determined using the CFX Maestro software version 2.0 by plotting the first derivative of fluorescence signal against temperature. All the measurements were performed in triplicate and the deviations of melting temperatures (ΔTm) presented for each samples were calculated relatively to three control samples (7 μM 14-3-3ε in the absence of the peptide). Binding constant (Kd) for each peptide was calculated by plotting ΔTm against peptide concentration and data points were fitted with Hill's equation using GraphPad 9.0 software.

Row | Kd (14-3-3ε protein) | Compound | SCC cells alive (SCC12B.2 cells)
1 | – | O=c1[nH]cc(F)c(=O)[nH]1 [5-FU, 5-Fluorouracil, reference compound] | 71.5 % alive
2 | 2.34 µM | CC(=O)N[C@@H](CCCNC(=N)N)C(=O)N[C@H](C(=O)N[C@@H](CCCCN)C(=O)N[C@@H](CO)C(=O)N[C@@H](CCCNC(=N)N)C(=O)N[C@H](C(=O)N[C@@H](Cc1ccc(O)cc1)C(=O)N[C@@H](C)C(=O)NCC(N)=O)[C@@H](C)OP(=O)(O)O)[C@@H](C)O [Ac-Arg-Thr-Lys-Ser-Arg-Thr(PO3^2−)-Tyr-Ala-Gly-NH2] (HELM PEPTIDE1{[ac].R.T.K.S.R.[C[C@@H](OP(=O)(O)O)[C@H](N[*:1])C(=O)[*:2]].Y.A.G.[am]}$$$$V2.0) | –
3 | 8.29 µM | CC(=O)N[C@@H](CCC(N)=O)C(=O)N[C@@H](CCCNC(=N)N)C(=O)N[C@@H](Cc1ccccc1)C(=O)N[C@@H](CC(N)=O)C(=O)N[C@@H](COP(=O)(O)O)C(=O)N[C@@H](C)C(=O)N1CCC[C@H]1C(=O)N[C@@H](C)C(=O)N[C@@H](CCCNC(=N)N)C(N)=O [Ac-Gln-Arg-Phe-Asn-Ser-(PO3^2−)-Ala-Pro-Ala-Arg-NH2] (HELM PEPTIDE1{[ac].Q.R.F.N.[O=C([C@H](COP(=O)(O)O)N[*:1])[*:2]].A.P.A.R.[am]}$$$$V2.0) | –
4 | 9.34 µM | CC(=O)N[C@@H](CCC(N)=O)C(=O)N[C@@H](CCCNC(=N)N)C(=O)N[C@@H](Cc1ccc(O)cc1)C(=O)N[C@@H](CC(N)=O)C(=O)N[C@@H](COP(=O)(O)O)C(=O)N[C@@H](C)C(=O)N1CCC[C@H]1C(=O)N[C@@H](C)C(=O)N[C@@H](CCCNC(=N)N)C(N)=O [Ac-Gln-Arg-Tyr-Asn-Ser-(PO3^2−)-Ala-Pro-Ala-Arg-NH2] (HELM PEPTIDE1{[ac].Q.R.Y.N.[O=C([C@H](COP(=O)(O)O)N[*:1])[*:2]].A.P.A.R.[am]}$$$$V2.0) | –
